Experimental data from ChEMBL document CHEMBL1926659, “CK2α and CK2α' subunits differ in their sensitivity to 4,5,6,7-tetrabromo- and 4,5,6,7-tetraiodo-1H-benzimidazole derivatives” (Eur J Med Chem, 2012).

Assays:
[1] = biological target: T1, Casein kinase II subunit alpha (Homo sapiens, UniProt P68400); experiment: Inhibition of human CK2 alpha catalytic subunit expressed in Escherichia coli BL21 (DE3) assessed as [32P]gamma-ATP incorporation into P2B substrate after 15 mins by scintillation counting
[2] = biological target: T1, Casein kinase II subunit alpha; experiment: Inhibition of human CK2 alpha catalytic subunit expressed in Escherichia coli BL21 (DE3) assessed as [32P]gamma-ATP incorporation into RRRADDSDDDDD substrate after 15 mins by scintillation counting
[3] = biological target: T2, Casein kinase II subunit alpha' (Homo sapiens, UniProt P19784); experiment: Inhibition of human CK2 alpha' catalytic subunit expressed in Escherichia coli BL21 (DE3) assessed as [33P]gamma-ATP incorporation into P2B substrate after 15 mins by scintillation counting
[4] = biological target: T2, Casein kinase II subunit alpha'; experiment: Inhibition of human CK2 alpha' catalytic subunit expressed in Escherichia coli […] (DE3) assessed as [33P]gamma-ATP incorporation into RRRADDSDDDDD substrate after 15 mins by scintillation counting

T2 sequence (P19784 whole entry): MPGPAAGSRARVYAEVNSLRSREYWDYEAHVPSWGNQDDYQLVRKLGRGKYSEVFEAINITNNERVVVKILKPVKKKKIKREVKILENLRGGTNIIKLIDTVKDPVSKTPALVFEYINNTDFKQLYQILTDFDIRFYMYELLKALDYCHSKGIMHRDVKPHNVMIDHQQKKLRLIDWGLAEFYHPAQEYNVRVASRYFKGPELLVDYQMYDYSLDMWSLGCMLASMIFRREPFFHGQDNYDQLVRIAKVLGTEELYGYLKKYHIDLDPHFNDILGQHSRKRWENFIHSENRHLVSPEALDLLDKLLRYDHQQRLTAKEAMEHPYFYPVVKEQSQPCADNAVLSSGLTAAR
T1 sequence (P68400 whole entry): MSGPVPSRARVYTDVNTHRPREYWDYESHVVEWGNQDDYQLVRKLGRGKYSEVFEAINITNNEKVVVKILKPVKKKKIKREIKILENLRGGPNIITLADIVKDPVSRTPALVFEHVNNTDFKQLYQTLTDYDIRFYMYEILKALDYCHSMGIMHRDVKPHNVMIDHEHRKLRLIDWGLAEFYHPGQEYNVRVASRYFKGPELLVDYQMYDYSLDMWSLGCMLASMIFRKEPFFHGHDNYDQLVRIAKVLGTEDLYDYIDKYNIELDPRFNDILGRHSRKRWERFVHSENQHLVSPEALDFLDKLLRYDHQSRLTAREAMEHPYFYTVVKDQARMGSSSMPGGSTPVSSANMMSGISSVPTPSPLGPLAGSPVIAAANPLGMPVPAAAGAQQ

Row | Structure (SMILES) | Ki [1] [µM] | Ki [2] [µM] | Ki [3] [µM] | Ki [4] [µM]
1 | O=C(O)CCCSc1nc2c(Br)c(Br)c(Br)c(Br)c2[nH]1 | 0.077 | 0.21 | 0.088 | 0.044
2 | Cn1c(SCC(=O)O)nc2c(Br)c(Br)c(Br)c(Br)c21 | 0.143 | 0.013 | 0.2 | 0.024
3 | Cn1c(SCCC(=O)O)nc2c(Br)c(Br)c(Br)c(Br)c21 | 0.112 | 0.137 | 0.1 | 0.055
4 | O=C(O)CCCn1cnc2c(Br)c(Br)c(Br)c(Br)c21 | 0.472 | 0.368 | 0.188 | 0.195
5 | CN(C)c1nc2c(Br)c(Br)c(Br)c(Br)c2n1CCCC(=O)O | 0.86 | 0.456 | 0.139 | 0.093
6 | Brc1c(Br)c(Br)c2[nH]cnc2c1Br |  |  | 0.27 | 0.343
7 | CN(C)c1nc2c(Br)c(Br)c(Br)c(Br)c2n1C | 0.212 | 0.154 | 0.109 | 0.035
8 | O=C(O)Cn1cnc2c(Br)c(Br)c(Br)c(Br)c21 | 0.798 | 0.67 | 0.609 | 0.342

Compounds with a lower Ki [3], results first:

Row | Ki [1] [µM] | Ki [2] [µM] | Ki [3] [µM] | Ki [4] [µM] | Structure (SMILES)
9 | 0.088 | 0.501 | 0.083 | 0.768 | Cn1c(SCCCC(=O)O)nc2c(Br)c(Br)c(Br)c(Br)c21
10 | 0.11 | 0.08 | 0.078 | 0.106 | O=C(O)CSc1nc2c(I)c(I)c(I)c(I)c2[nH]1
11 | 0.266 | 0.043 | 0.071 | 0.021 | Ic1c(I)c(I)c2[nH]cnc2c1I
12 | 0.088 | 0.083 | 0.066 | 0.021 | CN(C)c1nc2c(Br)c(Br)c(Br)c(Br)c2n1CC(=O)O
13 | 0.378 | 0.261 | 0.062 | 0.324 | O=C(O)Cn1cnc2c(I)c(I)c(I)c(I)c21
14 | 0.106 | 0.17 | 0.037 | 0.049 | O=C(O)CSc1nc2c(Br)c(Br)c(Br)c(Br)c2[nH]1
15 | 0.116 | 0.172 | 0.035 | 0.031 | O=C(O)CCSc1nc2c(Br)c(Br)c(Br)c(Br)c2[nH]1
